This note sets out measurements from PubChem BioAssay AID206 (DTP/NCI, 2004).

Values joined by “and” are separate entries in the source; they are usually repeats but may differ in a detail not shown here. Equal entries are not always repeated. Inconclusive results are not listed.

The assay has as its system nude mice, HT29 intrarenal xenograft, tumor weight T/C. The experiment in a line: NCI In Vivo Anticancer Drug Screen. Data for tumor model HT29;CX-1 Human Adenocarcinoma (MER+) (intrarenal inoculation) in NU/NU Swiss (nude) mice. Particulars: endpoint: mean tumor weight change, higher = larger tumour. The essentials: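 Endpoint measured as tumor size or survival; ratio reported is treated group over vehicle controls.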

The mark [1] stands for this setting: dose: 75.0 mg/kg/injection, schedule: Q04DX004 (sc), vehicle: Klucel (hydroxypropylcellulose) (HPC).
[2] abbreviates: dose: 150.0 mg/kg/injection, schedule: Q04DX004 (sc), vehicle: Klucel (hydroxypropylcellulose) (HPC).
[3] abbreviates: dose: 300.0 mg/kg/injection, schedule: Q04DX004 (sc), vehicle: Klucel (hydroxypropylcellulose) (HPC).
[4] abbreviates: dose: 600.0 mg/kg/injection, schedule: Q04DX004 (sc), vehicle: Klucel (hydroxypropylcellulose) (HPC).
[5] abbreviates: dose: 100.0 mg/kg/injection, schedule: Q01DX010 (sc), vehicle: water.
The mark [6] stands for this setting: dose: 200.0 mg/kg/injection, schedule: Q01DX010 (sc), vehicle: water.
Where [7] appears, read: dose: 400.0 mg/kg/injection, schedule: Q01DX010 (sc), vehicle: water.
Where [8] appears, read: dose: 100.0 mg/kg/injection, schedule: Q01DX010 (sc), vehicle: saline with Tween-80.
Where [9] appears, read: dose: 200.0 mg/kg/injection, schedule: Q01DX010 (sc), vehicle: saline with Tween-80.
Setting [10] is: dose: 150.0 mg/kg/injection, schedule: Q04DX004 (sc), vehicle: saline with Tween-80.
The mark [11] stands for this setting: dose: 50.0 mg/kg/injection, schedule: Q04DX004 (sc), vehicle: Klucel (hydroxypropylcellulose) (HPC).
[12] abbreviates: dose: 1200.0 mg/kg/injection, schedule: Q04DX004 (sc), vehicle: Klucel (hydroxypropylcellulose) (HPC).
Where [13] appears, read: dose: 300.0 mg/kg/injection, schedule: Q04DX004 (sc), vehicle: saline with Tween-80.
The mark [14] stands for this setting: dose: 600.0 mg/kg/injection, schedule: Q04DX004 (sc), vehicle: saline with Tween-80.
Where [15] appears, read: dose: 2400.0 mg/kg/injection, schedule: Q04DX004 (sc), vehicle: saline with Tween-80.

`CSc1ncc2ncn(C3OC(CO)C(O)C3O)c2n1` (stereo not given): the T/C reads like this: under setting [1], 95 % of control; under setting [2], 90 % of control; under setting [3], 185 % of control; under setting [4], 182 % of control.
With `CC1=CC(=NN=c2cc(C)n([O-])c(C)c2)C=C(C)[N+]1=O`, the T/C is 73 % of control (dose: 100.0 mg/kg/injection, schedule: Q04DX004 (sc), vehicle: suspension in saline); 48 % of control (dose: 200.0 mg/kg/injection, schedule: Q04DX004 (sc), vehicle: suspension in saline); 40 % of control (dose: 400.0 mg/kg/injection, schedule: Q04DX004 (sc), vehicle: suspension in saline); 39 % of control (dose: 800.0 mg/kg/injection, schedule: Q04DX004 (sc), vehicle: suspension in saline).
`CCCCCCCCCCCC(=O)NC1CC(O[C@H]2C[C@](O)(C(=O)CO)Cc3c(O)c4c(c(O)c32)C(=O)c2c(OC)cccc2C4=O)OC(C)C1O` (stereo not given in full): the T/C runs as follows: under setting [5], 105 % of control; under setting [6], 68 % of control; under setting [7], 26 % of control.
In the case of `CCO/C=C1\SC(=S)N(c2ccccc2C)C1=O`, the T/C runs as follows: under setting [8], 80 % of control; under setting [9], 102 % of control; (dose: 400.0 mg/kg/injection, schedule: Q01DX010 (sc), vehicle: saline with Tween-80) 177 % of control; (dose: 800.0 mg/kg/injection, schedule: Q01DX010 (sc), vehicle: saline with Tween-80) 107 % of control.
Consider `CCCC(=O)Oc1ccc(/C=N/NC(N)=S)nc1`, for which the T/C by setting is: under setting [8], 182 % of control; under setting [9], 168 % of control.
With `C[C@H](CCC[C@H](C)OS(=O)(=O)c1ccccc1)OS(=O)(=O)c1ccccc1`, the T/C (dose: 75.0 mg/kg/injection, schedule: Q04DX004 (sc), vehicle: saline with Tween-80) was 49 % of control and the T/C under setting [10] is 35 % of control.
Regarding `CN(C)N=Nc1cccc(C(N)=O)c1`, the T/C under setting [11] is 92 % of control and 116 % of control.
On to `O=c1oc2c(O)c(O)cc3c(=O)oc4c(O)c(O)cc1c4c23`, for which the T/C is 93 % of control under setting [2], 161 % of control under setting [4] and 201 % of control under setting [12].
Regarding `CC(=O)C1(O)Cc2c(O)c3c(c(O)c2C(OC2CC(N)C(O)C(C)O2)C1)C(=O)c1ccccc1C3=O` (stereo not given), the T/C (dose: 1.0 mg/kg/injection, schedule: Q04DX004 (sc), vehicle: water) is 67 % of control.
Regarding `CC(=O)Nc1ccc(O)c(O)c1`, the T/C is 257 % of control under setting [10], 56 % of control under setting [13], 231 % of control under setting [14] and 110 % of control under setting [15].
`O=[N+]([O-])c1ccc(Sc2ccncn2)c([N+](=O)[O-])c1`: the T/C reads like this: under setting [10], 44 % of control; under setting [13], 85 % of control; under setting [14], 85 % of control and 100 % of control; (dose: 1200.0 mg/kg/injection, schedule: Q04DX004 (sc), vehicle: saline with Tween-80) 73 % of control; under setting [15], 86 % of control.
For the molecule `S=C(Nc1ccc(Cl)c(Cl)c1)N1c2ccccc2-n2cccc2C1c1cccnc1` (stereo not given), the T/C is, setting by setting: (dose: 200.0 mg/kg/injection, schedule: Q04DX004 (sc), vehicle: Klucel (hydroxypropylcellulose) (HPC)) 52 % of control; (dose: 400.0 mg/kg/injection, schedule: Q04DX004 (sc), vehicle: Klucel (hydroxypropylcellulose) (HPC)) 114 % of control; (dose: 800.0 mg/kg/injection, schedule: Q04DX004 (sc), vehicle: Klucel (hydroxypropylcellulose) (HPC)) 83 % of control.
On to `CC(=O)O[C@@H]1CO[C@H]2O[C@H]3[C@@H](C(C=O)=C[C@H](O)[C@@H]4C5=C(C(C)C)CC[C@]5(C)CC[C@@]34C)[C@@]2(O)C1=O`, for which the T/C is 110 % of control (dose: 12.5 mg/kg/injection, schedule: Q04DX004 (sc), vehicle: Klucel (hydroxypropylcellulose) (HPC)); 83 % of control (dose: 25.0 mg/kg/injection, schedule: Q04DX004 (sc), vehicle: Klucel (hydroxypropylcellulose) (HPC)); 76 % of control under setting [11]; 58 % of control (dose: 100.0 mg/kg/injection, schedule: Q04DX004 (sc), vehicle: Klucel (hydroxypropylcellulose) (HPC)).
As for `CC(C)[C@](O)(C(=O)OCC1=CC[N+]2([O-])CC[C@@H](O)[C@@H]12)[C@H](C)O` (stereo not given in full), the T/C is, setting by setting: under setting [5], 38 % of control; under setting [6], 48 % of control; under setting [7], 36 % of control; (dose: 800.0 mg/kg/injection, schedule: Q01DX010 (sc), vehicle: water) 44 % of control.
As for `N=C(N)CCCCCCCCC(=N)N`, where the note is “dose: 18.75 mg/kg/injection, schedule: Q04DX004 (sc), vehicle: saline”, the T/C was 101 % of control.
As to `Cc1cc2c(c3oc(C4(C)OC4C4OC4C)cc(=O)c13)C(=O)c1c(O)c(C3CC(C)(N(C)C)C(O)C(C)O3)cc(C3CC(N(C)C)C(O)C(C)O3)c1C2=O` (stereo not given), the T/C (dose: 0.13 mg/kg/injection, schedule: Q01DX010 (sc), vehicle: saline) was 50 % of control.
As for `NNC(=S)N/N=C/c1ccccn1`, the T/C by setting is: (dose: 15.0 mg/kg/injection, schedule: Q04DX004 (sc), vehicle: saline with Tween-80) 100 % of control; (dose: 30.0 mg/kg/injection, schedule: Q04DX004 (sc), vehicle: saline with Tween-80) 76 % of control; (dose: 60.0 mg/kg/injection, schedule: Q04DX004 (sc), vehicle: saline with Tween-80) 86 % of control.
Turning to `CCCC(=O)O.CCCC(=O)O.CCCC(=O)O.CCCC(=O)O.[Rh].[Rh]`, the T/C was 99 % of control (dose: 0.5 mg/kg/injection, schedule: Q04DX004 (sc), vehicle: suspension in saline); 75 % of control (dose: 1.0 mg/kg/injection, schedule: Q04DX004 (sc), vehicle: suspension in saline); 97 % of control (dose: 2.0 mg/kg/injection, schedule: Q04DX004 (sc), vehicle: suspension in saline); 155 % of control (dose: 4.0 mg/kg/injection, schedule: Q04DX004 (sc), vehicle: suspension in saline).
For `CC[C@@]1(O)C[C@H](OC2CC(N(C)C)C(OC3CC(O)C(OC4CCC(=O)C(C)O4)C(C)O3)C(C)O2)c2c(cc3c(c2O)C(=O)c2c(O)cccc2C3=O)[C@H]1C(=O)OC` (stereo not given in full), the T/C reads like this: (dose: 0.5 mg/kg/injection, schedule: Q01DX010 (ip), vehicle: water) 35 % of control; (dose: 2.0 mg/kg/injection, schedule: Q04DX004 (ip), vehicle: water) 114 % of control; (dose: 4.0 mg/kg/injection, schedule: Q04DX004 (ip), vehicle: water) 61 % of control; (dose: 4.0 mg/kg/injection, schedule: Q04DX004 (sc), vehicle: water) 25 % of control; (dose: 8.0 mg/kg/injection, schedule: Q04DX004 (ip), vehicle: water) 37 % of control; (dose: 8.0 mg/kg/injection, schedule: Q04DX004 (sc), vehicle: water) 4 % of control.
With `CC1=C(/C=C/C(C)=C/C=C/C(C)=C/C=O)C(C)(C)CCC1`, the T/C reads like this: under setting [10], 61 % of control; under setting [13], 62 % of control; under setting [14], 67 % of control.
Turning to `Cc1cc(Nc2ccc3c(c2)OCO3)c2cc3c(cc2n1)OCO3`, the T/C by setting is: under setting [3], 79 % of control; under setting [4], 198 % of control.
Regarding `CCC(=O)O[C@H]1CC[C@H]2[C@@H]3CCC4=CC(=O)CC[C@]4(C)[C@H]3CC[C@]12C`, the T/C was 59 % of control under setting [3]; 82 % of control under setting [4]; 103 % of control under setting [12]; 52 % of control (dose: 2400.0 mg/kg/injection, schedule: Q04DX004 (sc), vehicle: Klucel (hydroxypropylcellulose) (HPC)).
In the case of `COc1ccc(-c2cc(C(=O)Nc3cc(C(F)(F)F)cc(C(F)(F)F)c3)c3ccccc3n2)cc1`, the T/C was 115 % of control (dose: 300.0 mg/kg/injection, schedule: Q04DX004 (ip), vehicle: DMSO) and 50 % of control (dose: 600.0 mg/kg/injection, schedule: Q04DX004 (ip), vehicle: DMSO).
For `O=C(O)C(O)C(O)C1[O][Sb][O]C1C(=O)O` (stereo not given), the T/C was 100 % of control (dose: 37.5 mg/kg/injection, schedule: Q04DX004 (sc), vehicle: saline); 73 % of control (dose: 75.0 mg/kg/injection, schedule: Q04DX004 (sc), vehicle: saline); 93 % of control (dose: 150.0 mg/kg/injection, schedule: Q04DX004 (sc), vehicle: saline).
`CCN(C)N=Nc1ccc(C(N)=O)cc1`: the T/C is, setting by setting: under setting [1], 92 % of control; under setting [2], 68 % of control.
